From patent US5498427A, “Solutions for the perfusion, preservation and reperfusion of organs” (Pasteur Merieux Serums et Vaccines, priority 1990, dated 1996)

Columns and labels:
[1] = test system: isolated hearts from Sprague-Dawley rats; assay: Test of solutions containing NAC on isolated rat heart preparations (Langendorff, arrest, 5 h cold storage, 1 h ischemia, 1 h reperfusion); settings: for Left ventricular pressure developed, Reperfusion: after ischemia and reperfusion; for Left ventricular pressure developed, Reperfusion / Coronary flow rate, Reperfusion / Coronary flow rate, Normal / Left ventricular pressure developed, Normal: N = 10; for Coronary flow rate, Normal / Left ventricular pressure developed, Normal: pre-ischaemic reference value
Protocol: Fifty isovolumic preparations of isolated hearts from Sprague-Dawley rats weighing 300 grams were used, the hearts being connected rapidly to a non-recirculating Langendorff perfusion column to establish a retrograde perfusion using an oxygenated (95% O2, 5% CO2) Krebs-Henseleit buffer, to establish a retrograde perfusion at a pressure of 100 cm of water. The left ventricular pressure, its derivative and the end-diastolicpressure were recorded continuously. The coronary flow rate was measured by noting the venous coronary flow rate. Left ventricular stimulation was maintained at a frequency of 320/min.
After a twenty-minute monitoring period, thirty hearts were arrested by perfusion using the preservation and perfusion solution at 4° C., and then rapidly placed in glass containers filled with the same solution and surrounded by ice. The hearts were maintained therein for five hours, with a mean myocardial temperature of 2° C. at the end of storage. The hearts were then reconnected to the perfusion circuit and subjected to an additional ischemia for one hour at between 15° and 18° C. The hearts were divided into three groups, including a control group which received a first perfusion of a solution which was identical but devoid of NAC on establishment of the post-storage ischemia and an additional perfusion of 25 ml of this solution immediately before unclamping the aorta, the perfusions being performed at 4° C. and 28° C., respectively. […] In the third group, a solution containing NAC at 28° C. was distributed in a single dose at the end of the ischemia. In this latter group, the NAC concentration was adjusted to 0.072 M so that all the hearts treated received the same amount of this substance, that is to say approximately 1.80 millimoles. The bottles containing the solutions as well as the connecting tubes were protected from light in order to avoid oxidation. In all three groups, the perfusions after storage were delivered at a pressure of 30 cm of water. After a period of ischemia of six hours, the hearts were reperfused for one hour at 37° C.
For all three groups, the stimulation was stopped and the left intraventricular balloon deflated during the period of ischemia so as to simulate clinical conditions. After reperfusion, stimulation was reestablished. Isovolumetric measurements of the coronary flow rate, the left ventricular pressure, its first derivative and the telediastolic pressure were performed three times during the monotoring period and then at 5, 30, 45 and 60 minutes during the reperfusion.

[2] = hypothermic storage conditions in usual bags, periods up to 3 hours
Excerpt: In one embodiment the solution is stored, as a whole, in the container.

[3] = Group II, multidose solution enriched with NAC, versus Groups I and III
[4] = Second group, (0.04 M) NAC multidose
[5] = Third group, (0.07 M) NAC single dose at end of ischemia

Row | Structure (SMILES) | Left ventricular diastolic pressure: postischemic contracture ([1]; Group II, multidose solution enriched with NAC) | Left ventricular pressure developed throughout the reperfusion period [1, 3] | Postischemic derivative dP/dt [1, 3] | Left ventricular diastolic pressure: compliance ([1]; Group III, reperfusion supplemented with NAC only at end of ischemia) | Left ventricular pressure loss after ischemia and reperfusion ([1]; Group III, reperfusion supplemented with NAC only at end of ischemia, versus Group II) | Left ventricular pressure developed, Reperfusion [1, 4] [mm Hg] | Coronary flow rate, Reperfusion ([1]; Second group, (0.04 M) NAC multidose, after sixty minutes of reperfusion) [mL/min] | Coronary flow rate, Normal [1, 4] [mL/min] | Left ventricular pressure developed, Normal [1, 4] [mm Hg] | Left ventricular pressure developed, Reperfusion [1, 5] [mm Hg] | Coronary flow rate, Reperfusion ([1]; Third group, (0.07 M) NAC single dose at end of ischemia, after sixty minutes of reperfusion) [mL/min] | Coronary flow rate, Normal [1, 5] [mL/min] | Left ventricular pressure developed, Normal [1, 5] [mm Hg] | Recovery of coronary flow rate ([1]; groups treated with NAC versus control, after sixty minutes of reperfusion) | Rate of glutathione oxydation on storage [2]
1 | CC(=O)N[C@@H](CS)C(=O)O [NAC, N-acetylcysteine] | significantly decreased | significantly greater pressure was developed | largest values | significant loss of compliance | significantly greater pressure losses | 101.5 ± 3.4 | 12.1 ± 0.5 | 14.8 ± 0.6 | 126.4 ± 2.8 | 69.8 ± 3.6 | 13.4 ± 0.4 | 16.0 ± 0.5 | 129.7 ± 2.0 | best recovery of coronary flow rate | 
2 | N[C@@H](CCC(=O)N[C@@H](CS)C(=O)NCC(=O)O)C(=O)O [glutathione] |  |  |  |  |  |  |  |  |  |  |  |  |  |  | only minimal rate of glutathione oxydation
